Results on 1 compound are retold here after US20180153872A1, “HETEROARYL CARBONITRILES FOR THE TREATMENT OF DISEASE” (OPKO Health, Inc., priority 2015, published 2018).

In brackets after ≈: the same amount, converted by molar mass.

The target of series [1] is T1, NK1 receptor (Canis lupus familiaris, UniProt Q5DUB3).
T1 construct: from tissue; host or cells: living dog
Description: Substance P-elicited blood pressure and minute volume changes in dogs. The series is classed as in vivo. To be noted: dog, 0.3 mg/kg oral.

The nature of the next series: Solubility. The format is physicochemical. The note with it: pH 7, aqueous buffer. From the text: The present invention comprises a compound having activity in mammalian cough models and is thus useful in the treatment of cough in mammals, including humans, after oral administration. The present invention comprises an oral formulation of a compound of formula I and pharmaceutically acceptable excipients selected from the group consisting of diluents, binders, disintegrants, wetting agents and lubricants. In a preferred embodiment the pharmaceutical composition comprises a compound of formula I (or IIa-IIc) or II and lactose monohydrate, microcrystalline cellulose, povidone, crospovidone, poloxamer 188 and magnesium stearate. The preferred oral form is a capsule. The amount of active ingredient in the capsule or oral dosage form may range from 1 mg to 250 mgs with a preferred range of 10-150 mg with a more preferred range of 20-100 mg per day in humans. The present invention also relates to an NK-1 antagonist (e.g., Formula II) having a half-life of approximately 10-13 days. The present invention further relates to a method of treating pruritus comprising administering a pharmaceutically effective amount of a compound of formula II having a half-life of 10-13 days to a patient in need of treatment thereof. […] The measured onset melting temperature as measured by differential scanning calorimetry (DSC) is 168.9. […]

A further series is described as follows: Plasma protein binding. The note with it: all mammals tested and human. The format is in vitro ADME. From the text:
Urinary excretion was also substantial (approximately 20%).

For series [2], the target named is NK1 receptor (Meriones unguiculatus, UniProt Q5DUB1). Description: Gerbil foot thumping (in vivo pharmacodynamic model of NK1 receptor activity). Further details: from tissue; host or cells: living gerbil (central NK1 receptors). From the text: Intracerebroventricular administration of NK1 receptor agonists to gerbils induces vigorous thumping in the hind feet. This response can be blocked by NK1 receptor antagonists.
NK1 receptor (Meriones unguiculatus, UniProt Q5DUB1), sequence (Q5DUB1 whole entry): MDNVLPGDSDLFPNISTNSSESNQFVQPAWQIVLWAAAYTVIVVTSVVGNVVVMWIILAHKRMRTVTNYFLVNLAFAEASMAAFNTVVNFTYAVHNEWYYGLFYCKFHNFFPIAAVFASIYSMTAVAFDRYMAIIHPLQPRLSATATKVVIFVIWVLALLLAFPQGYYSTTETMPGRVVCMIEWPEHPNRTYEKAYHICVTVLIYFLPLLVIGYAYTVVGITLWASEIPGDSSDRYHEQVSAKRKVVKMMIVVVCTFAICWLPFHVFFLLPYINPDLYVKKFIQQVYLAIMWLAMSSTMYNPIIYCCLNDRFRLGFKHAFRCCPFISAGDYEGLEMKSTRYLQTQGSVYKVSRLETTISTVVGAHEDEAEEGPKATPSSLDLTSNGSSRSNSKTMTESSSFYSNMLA

T1 sequence (Q5DUB3 whole entry): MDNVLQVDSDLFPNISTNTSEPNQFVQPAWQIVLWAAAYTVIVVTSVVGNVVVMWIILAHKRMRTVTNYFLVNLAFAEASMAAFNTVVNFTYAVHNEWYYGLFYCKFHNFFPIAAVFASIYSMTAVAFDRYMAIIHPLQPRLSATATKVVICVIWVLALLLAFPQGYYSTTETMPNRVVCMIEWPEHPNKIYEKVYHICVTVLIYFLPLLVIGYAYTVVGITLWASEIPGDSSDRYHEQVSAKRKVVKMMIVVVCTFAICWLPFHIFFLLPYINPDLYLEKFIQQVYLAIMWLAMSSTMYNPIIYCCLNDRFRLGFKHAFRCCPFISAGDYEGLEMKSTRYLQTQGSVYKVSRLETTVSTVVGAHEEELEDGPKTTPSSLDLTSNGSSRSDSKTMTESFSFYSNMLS

As a reminder, the solubility is the dissolved amount per volume that the medium holds. With `C[C@@H](OC[C@@]1(c2ccccc2)CC[C@](C#N)(n2cn[nH]c2=O)CN1)c1cc(C(F)(F)F)cc(C(F)(F)F)c1` [Compound 42, (3 S,6S)-6-({(1R)-1-[3,5-bis(trifluoromethyl)phenyl]ethoxy}methyl)-3-(5-oxo-1,5dihydro-4H-1,2,4-triazol-4-yl)-6-phenylpiperidine-3-carbonitrile], at NK1 receptor [1], the “inhibition of substance P-elicited increase in minute volume” value was “maximally inhibited” and the “inhibition of substance P-elicited reduction in blood pressure” value is “maximally inhibited”. In “Solubility”, the solubility was 1.8 µg/mL (≈ 3.34 µM). This compound yielded a protein bound in “Plasma protein binding” of at least 99.6%. In addition, the “duration of significant inhibition of NK1 agonist-induced foot thumping” value on NK1 receptor [2] (0.3 mg/kg oral dose) is recorded as “up to 48 hours”. In addition, the “ED90, effective dose for 90% inhibition of foot thumping” value at NK1 receptor [2] (oral, six hours before testing, GR 73632-induced) came out at 0.2 mg/kg.
